This note sets out measurements from ChEMBL document CHEMBL3763138, “Synthesis and bioactivity of novel triazole incorporated benzothiazinone derivatives as antitubercular and antioxidant agent” (Bioorg Med Chem Lett, 2016).

In brackets after ≈: the same amount, converted by molar mass.

Details in all cases: ATCC 35743, 10 min
Assay [1] concerns Mycobacterium tuberculosis variant bovis BCG. The assay can be described thus: Antitubercular activity against Mycobacterium bovis BCG ATCC 35743 at 3 ug/ml after 10 mins by NR assay. Format: functional.
Assay [2] shares this test system. In words: Antitubercular activity against Mycobacterium bovis BCG ATCC 35743 at 30 ug/ml after 10 mins by NR assay. Format: functional.
Assay [3] shares this test system. In words: Antitubercular activity against Mycobacterium bovis BCG ATCC 35743 at 10 ug/ml after 10 mins by NR assay. Format: functional.
For assay [4] the test system is unchanged. The assay can be described thus: Antitubercular activity against Mycobacterium bovis BCG ATCC 35743 after 10 mins by NR assay. The format is functional, organism-based.

The inhibition is the drop in the measured response relative to a control, in per cent. Usually IC50 stands for the midpoint of a concentration-inhibition curve. Read a low IC50 as greater potency in that assay. What is called MIC is the lowest concentration found to suppress growth. As to `O=C1CSc2ccccc2N1Cc1cn(-c2cccc([N+](=O)[O-])c2)nn1`, the inhibition at 3 µg/mL in assay [1] amounted to 39.3%. Besides, in assay [2], 30 µg/mL produced 26.6% inhibition. Besides, the inhibition at 10 µg/mL in assay [3] was determined as 31.3%. In assay [4], this molecule displayed an IC50 of over 30 µg/mL and an MIC of over 30 µg/mL.

In assay [1], `O=C1CSc2ccccc2N1Cc1cn(Cc2cccc([N+](=O)[O-])c2)nn1` yielded an inhibition at 3 µg/mL of 36.1%. At 30 µg/mL the inhibition in assay [2] was 88.5%. Further, in assay [3], the inhibition at 10 µg/mL turned out to be 62.2%. Besides, in assay [4], half-maximal inhibition (IC50) required 6.89 µg/mL (≈ 18.1 µM) and the MIC is over 30 µg/mL.

`O=C1CSc2ccccc2N1Cc1cn(Cc2ccc([N+](=O)[O-])cc2)nn1` had an inhibition at 3 µg/mL in assay [1] of 28.3%. For the same molecule, 30 µg/mL produced 91.1% inhibition in assay [2]. In assay [3], this molecule came in with an inhibition at 10 µg/mL of 59.2%. In assay [4], this molecule had an IC50 of 7.89 µg/mL (≈ 20.7 µM) and an MIC of 29.4 µg/mL (≈ 77 µM).

With `O=C1CSc2ccccc2N1Cc1cn(Cc2ccc(F)cc2)nn1`, the inhibition at 3 µg/mL in assay [1] is 40.6%. This molecule also came in with an inhibition at 30 µg/mL in assay [2] of 95.3%. The same molecule yielded an inhibition at 10 µg/mL in assay [3] of 52.9%. In assay [4], this molecule yielded a 50% inhibitory concentration (IC50) of 8.25 µg/mL (≈ 23.3 µM) and a minimal inhibitory concentration (MIC) of 27.5 µg/mL (≈ 77.6 µM).

With `O=C1CSc2ccccc2N1Cc1cn(Cc2ccc(Cl)cc2)nn1`, testing at 3 µg/mL in assay [1] gave an inhibition of 66.1%. Besides, in assay [2], the inhibition at 30 µg/mL was found to be 58.1%. For the same molecule, testing at 10 µg/mL in assay [3] gave an inhibition of 55.2%. Moreover, in assay [4], the half-inhibitory concentration (IC50) was determined as 8.55 µg/mL (≈ 23.1 µM) and the MIC was over 30 µg/mL.

`O=C1CSc2ccccc2N1Cc1cn(-c2ccc([N+](=O)[O-])cc2)nn1`: in assay [1], testing at 3 µg/mL gave an inhibition of 15.9%. In addition, in assay [2], the inhibition at 30 µg/mL was 33.1%. For the same molecule, testing at 10 µg/mL in assay [3] gave an inhibition of 30.7%. Further, in assay [4], the IC50 was over 30 µg/mL and the minimum inhibitory concentration (MIC) was over 30 µg/mL.

In assay [1], `O=C1CSc2ccccc2N1Cc1cn(Cc2ccc(Br)cc2)nn1` yielded an inhibition at 3 µg/mL of 58.8%. This molecule also returned an inhibition at 30 µg/mL in assay [2] of 43.9%. Also, at 10 µg/mL the inhibition in assay [3] was 35.3%. For the same molecule, in assay [4], the IC50 is over 30 µg/mL and the MIC was over 30 µg/mL.

In turn, `O=C1CSc2ccccc2N1Cc1cn(Cc2ccccc2)nn1` gave an inhibition at 3 µg/mL in assay [1] of 1.1%. The inhibition at 30 µg/mL in assay [2] was 74.3%. The inhibition at 10 µg/mL in assay [3] stood at 26.8%. In assay [4], this molecule had an IC50 of 19.8 µg/mL (≈ 58.7 µM) and a minimum inhibitory concentration (MIC) of over 30 µg/mL.

`O=C1CSc2ccccc2N1Cc1cn(Cc2cccc(Cl)c2)nn1` gave an inhibition at 3 µg/mL in assay [1] of 3.3%. This molecule returned an inhibition at 30 µg/mL in assay [2] of 95.5%. This molecule also registered an inhibition at 10 µg/mL in assay [3] of 16.4%. Besides, in assay [4], half-maximal inhibition (IC50) was put at 18.6 µg/mL (≈ 50.1 µM) and the MIC turned out to be 28.4 µg/mL (≈ 76.7 µM).

Molecule `O=C1CSc2ccccc2N1Cc1cn(Cc2ccccc2Cl)nn1` had an inhibition at 3 µg/mL in assay [1] of 32%. Besides, the inhibition at 30 µg/mL in assay [2] was determined as 58%. Moreover, in assay [3], the inhibition at 10 µg/mL is 80.2%. In assay [4], this molecule yielded an IC50 of over 30 µg/mL and a minimal inhibitory concentration (MIC) of over 30 µg/mL.

In assay [4], `NNC(=O)c1ccncc1` [ISONIAZID] came in with an IC50 of 0.0023 µg/mL (≈ 0.0168 µM) and an MIC of 0.045 µg/mL (≈ 0.328 µM).

In assay [4], `CO[C@H]1/C=C/O[C@@]2(C)Oc3c(C)c(O)c4c(O)c(c(/C=N/N5CCN(C)CC5)c(O)c4c3C2=O)NC(=O)/C(C)=C\C=C\[C@H](C)[C@H](O)[C@@H](C)[C@@H](O)[C@@H](C)[C@H](OC(C)=O)[C@@H]1C` [RIFAMPIN] gave an IC50 of 0.0016 µg/mL (≈ 0.00194 µM) and an MIC of 0.041 µg/mL (≈ 0.0498 µM).
